From PMC9586930, “Molecular insights into the distinct signaling duration for the peptide-induced PTH1R activation” (Nature Communications, 2022)
Changes are numbered by the printed parent chain.

Experiments:
Format in all cases: cell-based
Conditions in all cases: for ΔpEC50±SEM: relative to WT, n = 3 in triplicate; for ΔpEC50±SEM / Span±SEM: mean ± SEM; for Span±SEM: window between maximal response (Emax) and vehicle, n = 3
[1] = biological target: T1, PTH1R L436A mutant (Homo sapiens, UniProt Q03431, L436A); experiment: cAMP accumulation assay (GloSensor), PTH1R L436A
T1 construct: a flag-tag was fused to the N terminal of full-length PTH1R (WT or mutant); expressed in transfected cells; host or cells: HEK293T
T1 sequence (Q03431 27-593 L436A): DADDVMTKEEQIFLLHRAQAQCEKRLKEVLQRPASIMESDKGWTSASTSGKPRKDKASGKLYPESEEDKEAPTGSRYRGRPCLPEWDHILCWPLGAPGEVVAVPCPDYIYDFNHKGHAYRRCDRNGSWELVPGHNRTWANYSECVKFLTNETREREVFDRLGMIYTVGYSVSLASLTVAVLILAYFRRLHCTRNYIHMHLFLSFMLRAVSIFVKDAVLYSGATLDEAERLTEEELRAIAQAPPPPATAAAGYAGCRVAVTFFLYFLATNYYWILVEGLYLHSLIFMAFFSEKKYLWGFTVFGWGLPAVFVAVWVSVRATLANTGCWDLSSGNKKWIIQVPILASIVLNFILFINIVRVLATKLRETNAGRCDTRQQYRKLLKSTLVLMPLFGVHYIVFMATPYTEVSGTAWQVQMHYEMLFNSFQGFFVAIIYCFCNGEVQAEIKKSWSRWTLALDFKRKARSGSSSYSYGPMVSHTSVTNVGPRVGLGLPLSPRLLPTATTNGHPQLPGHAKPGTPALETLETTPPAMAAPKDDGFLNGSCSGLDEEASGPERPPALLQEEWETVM
Experimental: (§1) Human embryonic kidney 293 T (HEK293T, ATCC: CRL-1573) cells were transfected with a plasmid mixture consisting of pcDNA3.1-flag-PTH1R (WT or mutants) and the cAMP biosensor GloSensor-22F (Promega) at a ratio of 2:1 (see Supplementary Table 7 for a list of primers used in this study). After 24 h, transfected cells were plated onto a 384-well plate, which was treated with cell adherent reagent (Applygen) in advance. After another 12 h, cells were treated with Hank’s balanced salt solution for starvation and then incubated in CO2-independent media containing 4% GloSensor cAMP Reagent (Promega) at a volume of 5 μl per well and incubated for 20 min at RT before measurements for baseline luminescence (Spark Multimode microplate reader, TECAN). Next, test ligands were added at different concentrations from 10^−6 to 10^−13 M before second measurement. Finally, data were normalized to 100% of the maximal PTH (1-34) response for WT PTH1R using a sigmoidal dose-response in GraphPad Prism.
(§2) Statistical analyses were performed on at least three individual datasets and analysed using GraphPad Prism software. Bars represent differences in the calculated agonist potency (pEC50) and maximum agonist response (Emax) for each mutant relative to the WT receptor. Data are mean± s.e.m. from at least three independent experiments, performed in triplicates. ns, not significant, ^nsP > 0.01; ^*P < 0.01; ^**P < 0.001; ^***P < 0.0001 (one-way analysis of variance (ANOVA) followed by Dunnett’s test, compared with the response of the WT). For dose-response experiments, data were normalized and analyzed using nonlinear curve fitting for the log (agonist) versus response (three parameters) curves.

[2] = biological target: T2, PTH1R K360A mutant (Homo sapiens, UniProt Q03431, K360A); experiment: cAMP accumulation assay (GloSensor), PTH1R K360A
T2 construct: a flag-tag was fused to the N terminal of full-length PTH1R (WT or mutant); expressed in transfected cells; host or cells: HEK293T
T2 sequence (Q03431 27-593 K360A): T1 sequence (Q03431 27-593 L436A) with K334A, A410L
Experimental: as §1, §2

[3] = biological target: T3, PTH1R I363A mutant (Homo sapiens, UniProt Q03431, I363A); experiment: cAMP accumulation assay (GloSensor), PTH1R I363A
T3 construct: a flag-tag was fused to the N terminal of full-length PTH1R (WT or mutant); expressed in transfected cells; host or cells: HEK293T
T3 sequence (Q03431 27-593 I363A): T1 sequence (Q03431 27-593 L436A) with I337A, A410L
Experimental: as §1, §2

Substance | span (from the WT) ([1]; PTH1R L4367.34A, replicate 1) | ΔpEC50 (from the WT) ([1]; PTH1R L4367.34A, replicate 1) | span (from the WT) ([1]; PTH1R L4367.34A, replicate 2) | ΔpEC50 (from the WT) ([1]; PTH1R L4367.34A, replicate 2) | span (from the WT) ([1]; PTH1R L4367.34A, replicate 3) | ΔpEC50 (from the WT) ([1]; PTH1R L4367.34A, replicate 3) | ΔpEC50±SEM [1] | ΔpEC50 (from the WT) ([1]; replicate 1) | ΔpEC50 (from the WT) ([1]; replicate 2) | ΔpEC50 (from the WT) ([1]; replicate 3) | Span±SEM [1] | span (from the WT) ([2]; PTH1R K3605.36A, replicate 1) | ΔpEC50 (from the WT) ([2]; PTH1R K3605.36A, replicate 1) | span (from the WT) ([2]; PTH1R K3605.36A, replicate 2) | ΔpEC50 (from the WT) ([2]; PTH1R K3605.36A, replicate 2) | span (from the WT) ([2]; PTH1R K3605.36A, replicate 3) | ΔpEC50 (from the WT) ([2]; PTH1R K3605.36A, replicate 3) | ΔpEC50±SEM [2] | ΔpEC50 (from the WT) ([2]; replicate 1) | ΔpEC50 (from the WT) ([2]; replicate 2) | other results
H-AVAEIQLMHQRAKWIQDARRRAFLHKLIAEIHTAEI-OH [LA-PTH, long-acting PTH analog, modified PTH/PTHrP hybrid] | 237.8 | 0.088 | 171.3 | -0.137 | 194.5 | 0.085 | 0.01±0.07 | 0.088 | -0.137 | 0.085 | 201.20±19.49 | 126.5 | 0.012 | 121.9 | 0.001 | 153.1 | -0.25 | -0.08±0.09 | 0.012 | 0.001 | ΔpEC50 (from the WT) ([2]; replicate 3): -0.25; Span±SEM [2]: 133.83±9.72; span (from the WT) ([3]; PTH1R I3635.39A, replicate 1): 94.78; ΔpEC50 (from the WT) ([3]; PTH1R I3635.39A, replicate 1): -0.24; span (from the WT) ([3]; PTH1R I3635.39A, replicate 2): 139.7; ΔpEC50 (from the WT) ([3]; PTH1R I3635.39A, replicate 2): -0.23; span (from the WT) ([3]; PTH1R I3635.39A, replicate 3): 119.7; ΔpEC50±SEM [3]: -0.05±0.19; ΔpEC50 (from the WT) ([3]; replicate 1): -0.24; ΔpEC50 (from the WT) ([3]; replicate 2): -0.23; ΔpEC50 (from the WT) ([3]; replicate 3): 0.32; Span±SEM [3]: 118.06±12.99
H-AVSEHQLLHDKGKSIQDLRRRELLEKLL-{Aib}-KLHTA-NH2 [ABL, Abaloparatide, an analog of PTHrP, short-acting PTH1R agonist] | 166.5 | -0.45 | 265 | -0.73 | 245.1 | -0.7 | -0.63±0.09 | -0.45 | -0.73 | -0.7 | 225.53±30.07 | 125.1 | -1.039 | 150.8 | -1.216 | 115 | -1.137 | -1.13±0.05 | -1.039 | -1.216 | ΔpEC50 (from the WT) ([2]; replicate 3): -1.137; Span±SEM [2]: 130.30±10.66; span (from the WT) ([3]; PTH1R I3635.39A, replicate 1): 145.9; ΔpEC50 (from the WT) ([3]; PTH1R I3635.39A, replicate 1): -0.54; span (from the WT) ([3]; PTH1R I3635.39A, replicate 2): 170; ΔpEC50 (from the WT) ([3]; PTH1R I3635.39A, replicate 2): -0.46; span (from the WT) ([3]; PTH1R I3635.39A, replicate 3): 139.9; ΔpEC50 (from the WT) ([3]; PTH1R I3635.39A, replicate 3): -0.722; ΔpEC50±SEM [3]: -0.57±0.08; ΔpEC50 (from the WT) ([3]; replicate 1): -0.54; ΔpEC50 (from the WT) ([3]; replicate 2): -0.46; ΔpEC50 (from the WT) ([3]; replicate 3): -0.722; Span±SEM [3]: 151.93±9.20
H-SVSEIQLMHNLGKHLNSMERVEWLRKKLQDVHNF-OH [PTH, Teriparatide, human PTH 1-34, long-acting peptide agonist of PTH1R] | 270.9 | 0.137 | 204.3 | 0.015 | 186.9 | 0.016 | 0.06±0.04 | 0.137 | 0.015 | 0.016 | 220.70±25.60 | 136.9 | 0.02 | 137.1 | -0.139 | 183.3 | -0.31 | -0.14±0.10 | 0.02 | -0.139 | ΔpEC50 (from the WT) ([2]; replicate 3): -0.31; Span±SEM [2]: 135.06±20.89; span (from the WT) ([3]; PTH1R I3635.39A, replicate 1): 93.29; ΔpEC50 (from the WT) ([3]; PTH1R I3635.39A, replicate 1): -0.207; span (from the WT) ([3]; PTH1R I3635.39A, replicate 2): 156.2; ΔpEC50 (from the WT) ([3]; PTH1R I3635.39A, replicate 2): -0.352; span (from the WT) ([3]; PTH1R I3635.39A, replicate 3): 155.7; ΔpEC50 (from the WT) ([3]; PTH1R I3635.39A, replicate 3): -0.276; ΔpEC50±SEM [3]: -0.28±0.04; ΔpEC50 (from the WT) ([3]; replicate 1): -0.207; ΔpEC50 (from the WT) ([3]; replicate 2): -0.352; ΔpEC50 (from the WT) ([3]; replicate 3): -0.276; Span±SEM [3]: 180.23±7.67
